Assay results taken from PubChem BioAssay (NCI).
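Briefly, cells in 96-well plates were exposed to five compound concentrations for 48 h, and endpoints were estimated by linear interpolation. Abbreviation: GI50, concentration required for 50% inhibition of growth. TGI denotes the concentration required for complete inhibition of growth.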

How the values were obtained:
Experiment in all cases: NCI anticancer screen, dose series, 48 h
786-0 renal = tested on: 786-0 renal
SF-295 CNS = tested on: SF-295 CNS
OVCAR-5 ovarian = tested on: OVCAR-5 ovarian
HCT-116 colon = tested on: HCT-116 colon
HT29 colon = tested on: HT29 colon
OVCAR-8 ovarian = tested on: OVCAR-8 ovarian
A498 renal = tested on: A498 renal
HOP-92 NSCLC = tested on: HOP-92 NSCLC
MDA-MB-231 breast = tested on: MDA-MB-231 breast
PC-3 prostate = tested on: PC-3 prostate

| Structure (SMILES) | TGI (786-0 renal) | TGI (SF-295 CNS) | TGI (OVCAR-5 ovarian) | TGI (HCT-116 colon) | TGI (HT29 colon) | TGI (OVCAR-8 ovarian) | TGI (A498 renal) | TGI (HOP-92 NSCLC) | GI50 (MDA-MB-231 breast) | TGI (MDA-MB-231 breast) | GI50 (786-0 renal) | GI50 (SF-295 CNS) | GI50 (HCT-116 colon) | GI50 (HOP-92 NSCLC) | GI50 (HT29 colon) | GI50 (OVCAR-8 ovarian) | GI50 (PC-3 prostate) | TGI (PC-3 prostate) | GI50 (A498 renal) | GI50 (OVCAR-5 ovarian) |
| --- | --- | --- | --- | --- | --- | --- | --- | --- | --- | --- | --- | --- | --- | --- | --- | --- | --- | --- | --- | --- |
| O=[N+]([O-])c1ccc(-c2cnc3ccccn23)cc1 | > 100 µM | > 100 µM | > 100 µM | > 100 µM | > 100 µM | > 100 µM | > 100 µM | – | – | – | – | – | – | – | – | – | – | – | – | – |
| O=C1CCC(=O)c2c1c(O)c1ccncc1c2O | 29.1 µM | 36.4 µM | 38.2 µM | 27.9 µM | 21.3 µM | 25.3 µM | – | 38.1 µM | – | – | – | – | – | – | – | – | – | – | – | – |
| O=C(Nc1cc(C(F)(F)F)ccc1Cl)c1cccc(NC2=C(Cl)C(=O)N(Cc3ccccc3)C2=O)c1 | > 100 µM | > 100 µM | – | > 100 µM | > 100 µM | > 100 µM | 92.9 µM | > 100 µM | 32.7 µM | > 100 µM | 38.5 µM | 29.1 µM | 10.3 µM | 19.1 µM | 43.1 µM | 47.6 µM | 14.1 µM | > 100 µM | 28.5 µM | – |
| O=C1c2cc3c(cc2-c2c1c1cc(Cl)c(Cl)cc1c(=O)n2C[C@H](O)CO)OCO3 | 0.187 µM | – | 0.955 µM | – | – | 1.16 µM | 0.032 µM | – | 0.0796 µM | 1.66 µM | < 0.01 µM | < 0.01 µM | – | – | – | < 0.01 µM | – | – | < 0.01 µM | 0.0184 µM |
| C[Si](C)(C)/C(I)=C/CO | > 100 µM | 58.3 µM | 69 µM | 27.5 µM | 44.5 µM | 86.5 µM | > 100 µM | 54.5 µM | – | – | – | – | – | – | – | – | – | – | – | – |
| Cc1ccc(NC(=O)CCc2nnc(N)o2)cc1 | > 100 µM | > 100 µM | > 100 µM | > 100 µM | > 100 µM | > 100 µM | > 100 µM | > 100 µM | – | – | – | – | – | – | – | – | – | – | – | – |
| COc1ccc(-c2nnc(N3CCN(C(=O)CN4CCN(c5ccccc5)CC4)CC3)nc2-c2ccc(OC)cc2)cc1 | 29.3 µM | 47.7 µM | > 100 µM | > 100 µM | – | > 100 µM | 19.1 µM | 24 µM | 13.4 µM | > 100 µM | 5.37 µM | 5.83 µM | 3.19 µM | 3.49 µM | – | 7.15 µM | 3.83 µM | > 100 µM | 3 µM | > 100 µM |
| Cc1cc(N(CCCNc2ccnc3cc(Cl)ccc23)Cc2ccc3c(c2)OCO3)nc(N2CCOCC2)n1 | 0.907 µM | – | 22.3 µM | 0.882 µM | 0.695 µM | 25.6 µM | – | – | 0.303 µM | 1.37 µM | 0.254 µM | – | 0.245 µM | – | 0.247 µM | 0.312 µM | 0.352 µM | 29.2 µM | – | 0.29 µM |
| CCOC(=O)c1ccc(N=Nc2cc(C(=O)OCC)ccc2O)cc1 | > 100 µM | – | – | > 100 µM | > 100 µM | > 100 µM | > 100 µM | > 100 µM | – | – | – | – | – | – | – | – | – | – | – | – |
| CSc1ccccc1C#C/C=C\C#Cc1ccccc1N | 42.6 µM | 5.55 µM | 50 µM | 16.9 µM | 54.8 µM | > 100 µM | 14.5 µM | – | 4.69 µM | 22.2 µM | 16.3 µM | 1.83 µM | 4.58 µM | – | 25.1 µM | 35.8 µM | 14.5 µM | > 100 µM | 4.18 µM | 19.4 µM |
| CC(C)=CCc1cc2c(cc1O)OC[C@H]1c3cc4c(cc3O[C@@H]21)OCO4 | > 100 µM | > 100 µM | > 100 µM | 32.2 µM | > 100 µM | > 100 µM | – | > 100 µM | – | > 100 µM | – | – | – | – | – | – | – | > 100 µM | – | – |
| Oc1ccc(Nc2c3ccccc3nc3occ(Cl)c23)cc1 | > 100 µM | > 100 µM | > 100 µM | > 100 µM | > 100 µM | 57.9 µM | – | 8.96 µM | 2.43 µM | 7.39 µM | 12.9 µM | 4.65 µM | 5.85 µM | 0.0905 µM | 4.49 µM | 5.5 µM | 2.71 µM | 20.3 µM | – | 19 µM |
| C=CCC1(CN(C)C)CC/C(=C\c2ccc(Cl)cc2)C1=O (configuration not stated) | > 100 µM | > 85.3 µM | > 100 µM | > 94.5 µM | 60.1 µM | > 100 µM | > 100 µM | > 100 µM | – | – | – | – | – | – | – | – | – | – | – | – |
| [N-]=[N+]=N/C1=C/CCCCC(=O)C1 | > 100 µM | – | > 100 µM | – | > 100 µM | > 100 µM | – | > 100 µM | – | – | – | – | – | – | – | – | – | – | – | – |
| COC(=O)c1s/c(=N\C(=S)N(C)C)n(-c2ccc(Cl)cc2)c1C(=O)OC | > 100 µM | > 100 µM | > 100 µM | > 100 µM | > 100 µM | > 100 µM | > 100 µM | – | – | – | – | – | – | – | – | – | – | – | – | – |
| O=c1[nH]c2ccc(O)cc2o1 | > 100 µM | > 100 µM | > 100 µM | > 100 µM | > 100 µM | > 100 µM | > 100 µM | – | – | > 100 µM | – | – | – | – | – | – | – | > 100 µM | – | – |
| C[Si](C)(C)/C(Br)=C\CCN1C(=O)CCC1=O | > 100 µM | > 100 µM | > 100 µM | > 100 µM | > 100 µM | > 100 µM | > 100 µM | > 100 µM | – | – | – | – | – | – | – | – | – | – | – | – |
| CN(C)CCSc1cc(-c2ccccc2)c2ccccc2n1 | 25.2 µM | 28 µM | 26.2 µM | 20.4 µM | 35.8 µM | 58.5 µM | 33 µM | – | – | 24 µM | – | – | – | – | – | – | – | 24.6 µM | – | – |
| COc1ccc(/C(=C\C=C(C#N)C#N)Sc2nc3ccccc3s2)cc1 | 5.66 µM | 39.9 µM | 15.1 µM | – | 6.06 µM | 33.9 µM | 28.5 µM | 4.14 µM | 6.71 µM | 14.4 µM | 1.7 µM | 13.6 µM | – | 0.717 µM | 1.54 µM | 13.7 µM | 7.34 µM | 14.3 µM | 16.4 µM | 7.65 µM |
| COc1ccc(Cn2c(N)c(S(=O)(=O)c3ccc(Cl)cc3)c3nc(C#N)c(C#N)nc32)cc1 | > 50 µM | > 50 µM | > 50 µM | > 50 µM | – | > 50 µM | – | > 50 µM | 3.1 µM | 20.9 µM | 3.33 µM | 10.8 µM | > 50 µM | 11.1 µM | – | 7.55 µM | 33.5 µM | > 50 µM | – | 12.2 µM |
